Measured values: patent US11248016B2, “Glycolipids and pharmaceutical compositions thereof for use in therapy” (THE UNIVERSITY OF NOTTINGHAM, priority 2014, dated 2022)
“Also recorded” adds a separate entry of the source.

How the values were obtained:
[1] = system: amyloid precursor protein APP 5′UTR luciferase reporter; assay: 5′UTR firefly luciferase reporter assay, APP; assay type: cell-based, human
Description: SH-SY5Y cells were simultaneously co-transfected with APP-5′UTR firefly luciferase construct and a Renilla control vector. Luciferase levels were assayed using a Glomax Luminometer and Stop-n-Glo luciferase reagents (standard procedure throughout). The data presented represents 8 biological repetitions and use as the active a semi refined compound of Formula II. Levels of compound were estimated based on amounts of purified compound obtained from fresh tomato tissue.
The 5′UTRs of genes which negatively associate with the progression of Alzheimer's disease—amyloid precursor protein (APP) and beta secretases (BACE) are all inhibited by treatment with a compound of Formula II, whereas the equivalent reporter levels of housekeeping genes actin and thioredoxin (TXN) are not inhibited. […] Neuroblastoma cells were transfected 24 hours prior to treatment with a compound of Formula II. After treatment, cells were prepared as described in the materials and methods. Each experiment represents between 6 and 8 biological repetitions. […]
(§1) Cells were transfected using FuGene 6 (Roche) following the manufacturer's instructions. The activities of firefly and renilla luciferase in lysates prepared from transfected cells were measured using a commercially available Luciferase reporter assay system (Promega) and light emission was measured over a 10 sec interval using a TECAN luminometer. […]

[2] = system: firefly luciferase translation reporter; assay: Firefly luciferase translation reporter assay; assay type: cell-based, human
Source text: Graphs represent 4 biological repetitions per treatment—2 independent treatments of a compound of Formula II.
Graphs represent 4 biological repetitions per treatment. […] No difference is observed between Hippuristanol and Hippuristanol plus a compound of Formula II.
The degree of translation inhibition is shown to be equivalent to that of a known inhibitor of translation, hippuristanol (FIGS. 3b and 5). Comparative structured 5′UTR firefly luciferase reporter experiments conducted using either hippuristanol or a compound of Formula II show the inhibition of reporter levels is equivalent.
Cells were transfected using FuGene 6 (Roche) following the manufacturer's instructions. The activities of firefly and renilla luciferase in lysates prepared from transfected cells were measured using a commercially available Luciferase reporter assay system (Promega) and light emission was measured over a 10 sec interval using a TECAN luminometer. For each experiment described, data was obtained from a minimum of at least 3 biological repetitions per treatment.

[3] = system: beta secretases (BACE) 5′UTR; assay: 5′UTR firefly luciferase reporter assay, BACE; assay type: cell-based, human; conditions: Neuroblastoma cells; FIG. 3d
Description: (§2) The 5′UTRs of genes which negatively associate with the progression of Alzheimer's disease—amyloid precursor protein (APP) and beta secretases (BACE) are all inhibited by treatment with a compound of Formula II, whereas the equivalent reporter levels of housekeeping genes actin and thioredoxin (TXN) are not inhibited. […] Neuroblastoma cells were transfected 24 hours prior to treatment with a compound of Formula II. After treatment, cells were prepared as described in the materials and methods. Each experiment represents between 6 and 8 biological repetitions.
(§3) Experiments conducted using Firefly luciferase reporter plasmids containing the 5′ untranslated regions (UTRs) of the genes amyloid precursor protein (APP), thioredoxin (TXN) were conducted with reagents and materials described by Bottley et al, 2010. Experiments conducted using Firefly luciferase reporter plasmids containing the 5′ UTRs of the genes EGFR, BACE1 and Actin were conducted with reagents and materials described by Webb, 2012 (http://etheses.nottingham.ac.uk/2724/). […]
as §1

[4] = system: thioredoxin (TXN) 5′UTR; assay: 5′UTR firefly luciferase reporter assay, TXN; assay type: cell-based, human; conditions: Neuroblastoma cells; FIG. 3d
Description: as §2, §3, §1

[5] = system: epidermal growth factor receptor (EGFR) 5′UTR; assay: 5′UTR firefly luciferase reporter assay, EGFR; assay type: cell-based, human; conditions: Neuroblastoma cells; FIG. 3d
Description: as §2
After treatment with the compound of Formula II the levels of translation of a reporter construct containing the 5′UTR of amyloid precursor protein, which is processed into toxic amyloid the major constituent of amyloid plaques in Alzheimer's disease, is inhibited relative to equivalent control treatments. […]
as §1

[6] = system: NLGN1 5′UTR; assay: NLGN translation reporter assay, neuroligin 1; assay type: cell-based, human; conditions: FIG. 5: 1 μM Hippuristanol, 1.3 μM compound; FIG. 10: compound 46
Description: (§4) The mechanism of action and level of activity of Formula II are consistent with and comparative to a proven translational inhibitor extracted from a rare coral species (Hippuristanol—a proven inhibitor of eIf4A). In this experiment 1 μM of Hippuristanol and 1.3 μM of Formula I was used
(§5) FIG. 10—Compound 46, NLGN Translation reporter assay.
Direct evidence is provided that inhibiting eIF4A represents a new route to treating ASD based on the data presented by Gkogkas et al. Nature 2013, 493:371-7.
Treatment with the compound of Formula II (and compound 46) (FIG. 5 and FIG. 10) selectively decrease the firefly luciferase signal from a reporter construct containing the NLGN1 5′UTR upstream of a firefly luciferase gene. The translation of luciferase reporters downstream of the NLGN1 5′UTR has been proven to be dependent on the activity of the translation initiation complex eIF4F (Gkogkas et al Nature 2013, 493:371-7)—a complex containing the helicase eIF4A. Equivalent treatment had little effect on the signal generated from either a co-transfected renilla luciferase reporter control or cells transfected with an equivalent construct containing the NLGN2 5′UTR upstream of a firefly luciferase gene (FIG. 5 and FIG. 10).
as §3, §1

[7] = system: NLGN2 5′UTR; assay: NLGN translation reporter assay, neuroligin 2; assay type: cell-based, human; conditions: equivalent treatment; FIG. 5 and FIG. 10
Description: as §4, §5
Treatment with the compound of Formula II (and compound 46) (FIG. 5 and FIG. 10) selectively decrease the firefly luciferase signal from a reporter construct containing the NLGN1 5′UTR upstream of a firefly luciferase gene. The translation of luciferase reporters downstream of the NLGN1 5′UTR has been proven to be dependent on the activity of the translation initiation complex eIF4F (Gkogkas et al Nature 2013, 493:371-7)—a complex containing the helicase eIF4A. […]
as §1

[8] = system: CrPV IRES-dependent translation; assay: CrPV assay, IRES-dependent translation (Renilla luciferase); assay type: cell-based; conditions: 3 hours treatment
Source text: FIG. 12—CrPV assay—Natural molecule targets eIF4A.
By using a well characterised luciferase based reporter assay it was further determined that this class of molecule functions as a protein synthesis inhibitor via targeting the helicase eIF4A.

[9] = system: breast cancer cells MCF7; assay: Cell proliferation, MCF7; assay type: cell-based; conditions: 96 hours, Formula II only
Description: Growth of MCF7 cell lines were slowed by the treatment with a compound of Formula II. Experiment represents 6 biological repetitions, Error=S.E.M.
Prior to treatment cells were cultured to an appropriate confluency in 96 well tissue culture plates (Fisher). Cells remained either supplemented with fresh media or treated with fresh media containing active or an equivalent volume of DMSO (vehicle control). Where used, Cisplatin™ was diluted to a stock concentration in Dimethylformamide (DMF), then handled as per the manufacturer's instructions. To determine relative cell viability, reagents WST-1 (Roche) or MTT (Sigma) were used as per the manufacturer's instructions and absorbance at 450 nm measured using a Victor plate reader (Perkin Elmer).

## CC/C=C\C/C=C\C/C=C\CCCCCCCC(=O)OC[C@H](COC1OC(CO)C(O)C(O)C1O)OC(=O)CCCCCCC/C=C\C/C=C\C/C=C\CC (stereo partly drawn) [Formula II, 1,2-dioctadecatienyl-3-O-β-D-galactosyl-sn-glycerol]
[1]; Neuroblastoma cells transfected 24 hours prior, FIG. 3d
  firefly luciferase reporter activity, APP 5′UTR: inhibited
[1]; SH-SY5Y cells, semi refined compound, FIG. 3a
  APP 5′UTR luciferase reporter relative to Renilla luciferase reporter: selective inhibition
[2]; Hippuristanol 1 μM, 4 hrs, FIG. 3c
  difference between Hippuristanol and Hippuristanol plus Formula II: No difference
[2]; Hippuristanol (1 μM) plus Formula II, 4 hrs, FIG. 3c
  inhibition of translation reporter: significant inhibition
[2]; neuroblastoma cells, treated 4 hrs, compound alone, FIG. 3b
  inhibition of translation reporter activity: equivalent to treatment with 1 μM Hippuristanol
[3]
  firefly luciferase reporter activity, BACE 5′UTR: inhibited
[4]
  firefly luciferase reporter levels, TXN 5′UTR: not inhibited
[5]
  firefly luciferase reporter activity, EGFR 5′UTR: selectively inhibited; also recorded: significant inhibition (p=0.005)
[6]
  translation of NLGN1 5′UTR firefly luciferase reporter relative to neuroligin 2: selectively reduces the translation
[7]
  signal of NLGN2 5′UTR firefly luciferase reporter: little effect
[8]
  CrPV IRES-dependent translation (Renilla luciferase signal): but not CrPV IRES-dependent translation (Renilla luciferase signal), was inhibited
[9]
  growth of MCF7 cells: slowed
